Reference: PMC12692346, “Imidazolinium-Based NHC–Metal Complexes Overcome Both Cancer Multidrug Resistance and Cisplatin Resistance In Vitro” (International Journal of Molecular Sciences, 2025)

Columns and labels:
[1] = test system: Mes-Sa mCherry uterine sarcoma cell line; test: Triple coculture fluorescence cytotoxicity test, parental line; type: cell-based, human; conditions: 144 h incubation, fluorescence readout
Protocol: (§1) All synthesized complexes and representatives of the respective ligands (Lb, Lc, SIPr, IPr) were tested in a triple coculture of uterine sarcoma cell lines, consisting of the parental Mes-Sa cell line, and its MDR derivatives Mes-Sa/B1 and Mes-Sa/Dx5, transfected or selected in doxorubicin to overexpress P-glycoprotein, respectively (Figure 2a–c, Table S2). Each cell line expresses a distinct fluorescent protein (mCherry, mOrange, and eGFP, respectively), and the total fluorescence of a well is proportional to the cell number, allowing the assessment of compound cytotoxicity.
(§2) In a triple coculture system, cell lines expressing different fluorescent proteins were seeded in the same well. Cell lines (Mes-Sa mCherry, Mes-Sa/B1 mOrange, Mes-Sa/Dx5 eGFP [25]) were admixed and seeded on 384-well plates at a density of 3 × 800 cells/well (1:1:1 ratio), resulting in an overall total of 2400 cells. The next day, serially diluted compounds were added to the wells. Liquid handling was managed by a Hamilton StarLet pipetting robot. After 144 h of incubation, the fluorescence of mCherry (ex/em: 585/610 nm), mOrange (ex/em: 545/567 nm) and eGFP (ex/em: 485/510 nm) was recorded with an EnSpire plate reader (PerkinElmer, Waltham, MA, USA).
(§3) pIC50 values derived from both co- and monoculture systems were determined by a custom program written in C# [25], then average and standard deviations were calculated and transformed to IC50 values. Every compound was tested in at least 3 independent experiments in triplicates.

Mes-Sa/B1 mOrange = test: Triple coculture fluorescence cytotoxicity test, ABCB1-transfected MDR line; type: cell-based, human; conditions: for RR_B1 resistance ratio (IC50_MDR line / IC50_parental line) of Mes-Sa/B1: Mes-Sa/B1 vs Mes-Sa; for IC50: triple coculture, 144 h incubation, fluorescence readout
Protocol: as §1, §2, §3

[2] = test system: CST murine breast cancer cell line; test: Monoculture PrestoBlue cytotoxicity test, CST; type: cell-based, mouse; conditions: 120 h exposure
Protocol: (§4) CST, a drug-naïve murine breast cancer cell line, and cisplatin-resistant cells CST-2/3 were seeded in monoculture into 384-well plates (Corning Inc., Corning, NY, USA) at a density of 2500 cells per well using automated liquid-handling. The cells were preincubated for 24 h to ensure adherence, followed by the addition of serially diluted compounds to a final well volume of 60 µL. Following 120 h of continuous drug exposure, cell viability was quantified using the PrestoBlue viability assay (Thermo Fisher Scientific, Waltham, MA, USA) after 1 h incubation at 555 nm excitation and 585 nm emission wavelengths.
as §3

[3] = test system: CST-2/3 cisplatin-resistant cells; test: Monoculture PrestoBlue cytotoxicity test, cisplatin-resistant CST-2/3; type: cell-based, mouse; conditions: for RR_CST resistance ratio (IC50_CST-2/3 / IC50_CST): CST-2/3 vs CST; for IC50: monoculture, 120 h exposure, PrestoBlue
Protocol: as §4, §3

Mes-Sa/Dx5 eGFP = test: Triple coculture fluorescence cytotoxicity test, doxorubicin-selected MDR line; type: cell-based, human; conditions: for RR_Dx5 resistance ratio (IC50_MDR line / IC50_parental line) of Mes-Sa/Dx5: Mes-Sa/Dx5 vs Mes-Sa; for IC50: triple coculture, 144 h incubation, fluorescence readout
Protocol: as §1, §2, §3

[4] = test system: MSCL-1 mesenchymal stem cell-like cell line; test: PrestoBlue cytotoxicity test, non-malignant MSCL-1; type: cell-based, human; conditions: for IC50: 72 h treatment, PrestoBlue; for MSCL-1 / CST ratio (IC50_MSCL-1/IC50_cancer line): MSCL-1 vs CST; for MSCL-1 / Mes-Sa ratio (IC50_MSCL-1/IC50_cancer line): MSCL-1 vs Mes-Sa
Protocol: The MSCL-1 line was seeded on 96-well plates with 15,000 cells/well density, and the following day, it was treated with the compounds for 72 h, when cell viability was assessed using a PrestoBlue viability assay.
as §3

CST cells = test: H2DCFDA intracellular ROS assay in CST; type: cell-based, mouse; conditions: 25 µM, 4 h incubation, vs 0 h
Protocol: (§5) Intracellular ROS production was assessed by the H2DCFDA—Cellular ROS Assay Kit (ab113851, Abcam, Cambridge, UK) according to the manufacturer’s instructions. Briefly, 20,000 cells (Mes-Sa and CST) were seeded on 96-well plates 1 day prior to the experiment. The cells were washed and incubated with H2DCFDA solution for 45 min in the dark. Following an additional washing step, test compounds were added in complete, phenol red free medium (FluoroBrite™, Thermo Fisher Scientific), at a final concentration of 25 µM. Fluorescence of 2′,7′-dichlorofluorescein (DCF) was measured at 484 nm/535 nm excitation/emission wavelengths. Data were normalized to baseline (0 h) values and represent at least three independent experiments.

Mes-Sa cells = test: H2DCFDA intracellular ROS assay in Mes-Sa; type: cell-based, human; conditions: 25 µM, 4 h incubation
Protocol: as §5

| SMILES | IC50 [1] [nM] | RR_B1 resistance ratio (IC50_MDR line / IC50_parental line) of Mes-Sa/B1 (Mes-Sa/B1 mOrange) | IC50 (Mes-Sa/B1 mOrange) [nM] | IC50 [2] [nM] | RR_CST resistance ratio (IC50_CST-2/3 / IC50_CST) [3] | IC50 [3] [nM] | RR_Dx5 resistance ratio (IC50_MDR line / IC50_parental line) of Mes-Sa/Dx5 (Mes-Sa/Dx5 eGFP) | IC50 (Mes-Sa/Dx5 eGFP) [nM] | IC50 [4] [nM] | MSCL-1 / CST ratio (IC50_MSCL-1/IC50_cancer line) [4] | MSCL-1 / Mes-Sa ratio (IC50_MSCL-1/IC50_cancer line) [4] | increase in intracellular ROS (CST cells) [%] | increase in intracellular ROS (Mes-Sa cells; vs 0 h) [%] | intracellular ROS induction compared to serum-containing medium (in words) (Mes-Sa cells) | IC50 ([1]; Homo sapiens, MES-SA) [nM] | IC50 (Mes-Sa/B1 mOrange; Homo sapiens, MES-SA) [nM] | IC50 ([2]; Mus musculus) [nM] | IC50 ([3]; Mus musculus) [nM] | IC50 (Mes-Sa/Dx5 eGFP; Homo sapiens, MES-SA/Dx5) [nM] |
| --- | --- | --- | --- | --- | --- | --- | --- | --- | --- | --- | --- | --- | --- | --- | --- | --- | --- | --- | --- |
| N.N.[Cl][Pt][Cl] [Cisplatin] | 2520 | 0.8 | 2130 | 150 | 5.5 | 820 | 2.3 | 5910 | 17000 | 113.6 | 6.8 |  |  |  |  |  |  |  |  |
| CC(C)c1cccc(C(C)C)c1N1[C](=[Au][Cl])N([C@@H](C)c2ccccc2)C[C@@H]1C(C)(C)C [Compound 3b] | 6170 | 2.4 | 14800 | 22900 | 1.1 | 25100 | 1.6 | 9920 |  |  |  |  |  |  |  |  |  |  |  |
| CC(C)c1cccc(C(C)C)c1N1[C](=[Au][Cl])N([C@@H](C)c2cccc3ccccc23)C[C@@H]1C(C)(C)C [Compound 3d] | 7810 | 2.8 | 21900 | 6170 | 1.4 | 8380 | 2.5 | 19400 |  |  |  |  |  |  |  |  |  |  |  |
| C=C[CH2][Pd]([Cl])=[C]1N([C@H](C)c2ccccc2)C[C@H](C(C)(C)C)N1c1c(C(C)C)cccc1C(C)C [Compound 4c] | 2340 | 2.4 | 5620 | 1100 | 1.2 | 1350 | 4.3 | 10100 |  |  |  |  |  |  |  |  |  |  |  |
| CC(C)c1cccc(C(C)C)c1N1CCN(c2c(C(C)C)cccc2C(C)C)[C]1=[Cu][Cl] [Compound 5a] | 420 | 1.0 | 440 | 180 | 1.5 | 270 | 1.0 | 430 | 1150 | 6.5 | 2.7 | 88 | 72 |  |  |  |  |  |  |
| CC(C)c1cccc(C(C)C)c1N1CCN(c2c(C(C)C)cccc2C(C)C)[C]1=[Ag][Cl] [Compound 6a] | 610 | 1.6 | 980 | 530 | 1.7 | 880 | 1.5 | 890 | 1240 | 2.3 | 2.0 | 107 |  | did not significantly induce |  |  |  |  |  |
| C=C[CH2][Pd]([Cl])=[C]1N(c2c(C(C)C)cccc2C(C)C)CCN1c1c(C(C)C)cccc1C(C)C [Compound 8a] | 2680 | 2.0 | 5250 | 1520 | 1.3 | 2000 | 2.2 | 5960 | 2980 | 2.0 | 1.1 |  |  |  |  |  |  |  |  |
| CC(C)c1cccc(C(C)C)c1N1C=[N+]([C@@H](C)c2ccccc2)C[C@@H]1C(C)(C)C [Lb] |  | 22.7 |  |  | 2.0 |  | 26.1 |  |  |  |  |  |  |  | 1830 | 41700 | 4950 | 9690 | 47900 |
